HELM strings list units from the 5' end as sugar, base in round brackets, then linkage (d deoxyribose, r ribose, m 2'-O-methyl, p phosphodiester). Strings are as the collection lists them, not checked against the first reports. ss, as = sense and antisense strand; [una] = unlocked nucleic acid; [fl2r] = 2'-fluoro
Details: siRNA
Note: test system not given here.

Substance	target mRNA knockdown [%]
RNA1{r(G)p.r(G)p.r(A)p.r(C)p.r(A)p.r(U)p.r(U)p.r(C)p.r(A)p.r(G)p.r(A)p.r(A)p.r(C)p.r(A)p.r(A)p.r(G)p.r(A)p.r(A)p.r(A)p.[una](U)p.[una](U)}|RNA2{r(U)p.r(U)p.r(U)p.r(C)p.r(U)p.r(U)p.[una](G)p.r(U)p.r(U)p.r(C)p.r(U)p.r(G)p.r(A)p.r(A)p.r(U)p.r(G)p.r(U)p.r(C)p.r(C)p.[una](U)p.[una](U)}$$$RNA1{StrandType:ss}|RNA2{StrandType:as}$	78
RNA1{r(G)p.r(G)p.r(A)p.r(C)p.r(A)p.r(U)p.r(U)p.r(C)p.r(A)p.r(G)p.r(A)p.r(A)p.r(C)p.r(A)p.r(A)p.r(G)p.r(A)p.r(A)p.r(A)p.[una](U)p.[una](U)}|RNA2{r(U)p.r(U)p.r(U)p.r(C)p.r(U)p.r(U)p.r(G)p.r(U)p.r(U)p.[una](C)p.r(U)p.r(G)p.r(A)p.r(A)p.r(U)p.r(G)p.r(U)p.r(C)p.r(C)p.[una](U)p.[una](U)}$$$RNA1{StrandType:ss}|RNA2{StrandType:as}$	17
RNA1{r(G)p.r(G)p.r(A)p.r(G)p.m(C)p.r(A)p.r(C)p.r(G)p.r(C)p.r(U)p.m(U)p.r(A)p.r(C)p.m(U)p.r(A)p.r(C)p.r(C)p.r(U)p.r(U)p.r(T)p.r(T)}|RNA2{r(A)p.r(A)p.r(G)p.r(G)p.m(U)p.r(A)p.r(G)p.m(U)p.r(A)p.r(A)p.r(G)p.r(C)p.r(G)p.m(U)p.r(G)p.r(C)p.r(U)p.r(C)p.r(C)p.r(T)p.r(T)}$$$RNA1{StrandType:ss}|RNA2{StrandType:as}$	68
RNA1{r(G)p.r(G)p.r(A)p.r(G)p.r(C)p.m(U)p.m(A)p.r(G)p.r(A)p.r(C)p.r(G)p.r(G)p.r(G)p.m(U)p.r(A)p.r(C)p.r(G)p.r(A)p.r(G)p.r(T)p.r(T)}|RNA2{r(C)p.r(U)p.r(C)p.r(G)p.r(U)p.r(A)p.r(C)p.r(C)p.r(C)p.r(G)p.r(U)p.r(C)p.m(U)p.r(A)p.r(G)p.r(C)p.r(U)p.r(C)p.r(C)p.r(T)p.r(T)}$$$RNA1{StrandType:ss}|RNA2{StrandType:as}$	81
RNA1{r(G)p.r(G)p.r(A)p.r(G)p.r(C)p.m(U)p.r(A)p.r(G)p.r(A)p.r(C)p.r(G)p.r(G)p.r(G)p.m(U)p.r(A)p.r(C)p.r(G)p.r(A)p.r(G)p.r(T)p.r(T)}|RNA2{r(C)p.r(U)p.r(C)p.r(G)p.m(U)p.r(A)p.r(C)p.r(C)p.r(C)p.r(G)p.r(U)p.r(C)p.m(U)p.r(A)p.r(G)p.r(C)p.r(U)p.r(C)p.r(C)p.r(T)p.r(T)}$$$RNA1{StrandType:ss}|RNA2{StrandType:as}$	82
RNA1{r(G)p.r(G)p.r(A)p.r(G)p.r(C)p.r(A)p.r(C)p.r(G)p.r(C)p.r(U)p.m(U)p.r(A)p.r(C)p.m(U)p.r(A)p.r(C)p.r(C)p.r(U)p.r(U)p.r(T)p.r(T)}|RNA2{r(A)p.r(A)p.r(G)p.r(G)p.m(U)p.r(A)p.r(G)p.m(U)p.r(A)p.r(A)p.r(G)p.r(C)p.r(G)p.r(U)p.r(G)p.r(C)p.r(U)p.r(C)p.r(C)p.r(T)p.r(T)}$$$RNA1{StrandType:ss}|RNA2{StrandType:as}$	69
RNA1{r(G)p.r(G)p.r(C)p.m(C)p.r(A)p.r(A)p.r(A)p.r(G)p.m(U)p.r(A)p.r(A)p.r(U)p.r(C)p.r(G)p.m(U)p.r(G)p.r(G)p.r(U)p.r(U)p.r(T)p.r(T)}|RNA2{r(A)p.r(A)p.r(C)p.m(C)p.r(A)p.r(C)p.r(G)p.r(A)p.r(U)p.m(U)p.r(A)p.r(C)p.r(U)p.r(U)p.m(U)p.r(G)p.r(G)p.r(C)p.r(C)p.r(T)p.r(T)}$$$RNA1{StrandType:ss}|RNA2{StrandType:as}$	86
RNA1{r(G)p.r(G)p.r(C)p.r(C)p.r(A)p.r(A)p.r(A)p.r(G)p.m(U)p.r(A)p.r(A)p.r(U)p.r(C)p.r(G)p.r(U)p.r(G)p.r(G)p.r(U)p.r(U)p.r(T)p.r(T)}|RNA2{r(A)p.r(A)p.r(C)p.r(C)p.r(A)p.r(C)p.r(G)p.r(A)p.r(U)p.m(U)p.r(A)p.r(C)p.r(U)p.r(U)p.r(U)p.r(G)p.r(G)p.r(C)p.r(C)p.r(T)p.r(T)}$$$RNA1{StrandType:ss}|RNA2{StrandType:as}$	85
RNA1{r(G)p.r(G)p.r(C)p.r(C)p.r(U)p.r(U)p.r(U)p.r(C)p.r(A)p.r(C)p.r(U)p.r(A)p.r(C)p.r(U)p.r(C)p.r(C)p.r(U)p.r(A)p.r(C)p.d(T)p.d(T)}|RNA2{r(G)p.r(U)p.r(A)p.r(G)p.r(G)p.r(A)p.r(G)p.r(U)p.r(A)p.r(G)p.r(U)p.r(G)p.r(A)p.r(A)p.r(A)p.r(G)p.r(G)p.r(C)p.r(C)p.d(T)p.d(T)}$$$RNA1{StrandType:ss}|RNA2{StrandType:as}$	36
RNA1{r(G)p.r(G)p.r(C)p.r(C)p.r(U)p.r(U)p.r(U)p.r(C)p.r(U)p.r(C)p.r(U)p.r(C)p.m(U)p.r(A)p.r(G)p.r(A)p.m(U)p.r(A)p.r(U)p.r(T)p.r(T)}|RNA2{r(A)p.m(U)p.r(A)p.r(U)p.r(C)p.m(U)p.r(A)p.r(G)p.r(A)p.r(G)p.r(A)p.r(G)p.r(A)p.r(A)p.r(A)p.r(G)p.r(G)p.r(C)p.r(C)p.r(T)p.r(T)}$$$RNA1{StrandType:ss}|RNA2{StrandType:as}$	89
RNA1{r(G)p.r(G)p.r(C)p.r(C)p.r(U)p.r(U)p.r(U)p.r(C)p.r(U)p.r(C)p.r(U)p.r(C)p.r(U)p.r(A)p.r(G)p.r(A)p.r(U)p.r(A)p.r(U)p.r(T)p.r(T)}|RNA2{r(A)p.m(U)p.r(A)p.r(U)p.r(C)p.m(U)p.r(A)p.r(G)p.r(A)p.r(G)p.r(A)p.r(G)p.r(A)p.r(A)p.r(A)p.r(G)p.r(G)p.r(C)p.r(C)p.r(T)p.r(T)}$$$RNA1{StrandType:ss}|RNA2{StrandType:as}$	90
RNA1{r(G)p.r(G)p.r(C)p.r(G)p.r(G)p.r(G)p.r(C)p.r(U)p.r(C)p.r(U)p.r(U)p.r(U)p.r(C)p.r(C)p.m(U)p.r(A)p.r(U)p.r(U)p.r(C)p.r(T)p.r(T)}|RNA2{r(G)p.r(A)p.r(A)p.m(U)p.r(A)p.r(G)p.r(G)p.r(A)p.r(A)p.r(A)p.r(G)p.r(A)p.r(G)p.r(C)p.r(C)p.r(C)p.r(G)p.r(C)p.r(C)p.r(T)p.r(T)}$$$RNA1{StrandType:ss}|RNA2{StrandType:as}$	69
RNA1{r(G)p.r(G)p.r(C)p.r(U)p.[fl2r](U)p.r(A)p.r(G)p.r(U)p.[fl2r](C)p.r(A)p.r(C)p.r(U)p.r(C)p.r(C)p.r(U)p.r(C)p.r(U)p.r(U)p.r(C)p.r(T)p.r(T)}|RNA2{r(G)p.r(A)p.r(A)p.r(G)p.r(A)p.r(G)p.r(G)p.r(A)p.r(G)p.[fl2r](U)p.r(G)p.r(A)p.r(C)p.[fl2r](U)p.r(A)p.r(A)p.r(G)p.r(C)p.r(C)p.r(T)p.r(T)}$$$RNA1{StrandType:ss}|RNA2{StrandType:as}$	68
RNA1{r(G)p.r(G)p.r(C)p.r(U)p.[fl2r](U)p.r(A)p.r(G)p.r(U)p.r(C)p.r(A)p.r(C)p.r(U)p.r(C)p.r(C)p.r(U)p.r(C)p.r(U)p.r(U)p.r(C)p.r(T)p.r(T)}|RNA2{r(G)p.r(A)p.r(A)p.r(G)p.r(A)p.r(G)p.r(G)p.r(A)p.r(G)p.r(U)p.r(G)p.r(A)p.r(C)p.[fl2r](U)p.r(A)p.r(A)p.r(G)p.r(C)p.r(C)p.r(T)p.r(T)}$$$RNA1{StrandType:ss}|RNA2{StrandType:as}$	69

From the OligoGym collection
